# Measurements reported in US20020049223A1, “Quinoline and naphthyridine carboxylic acid antibacterials” (priority 1999, published 2002).
# How the values were obtained:
# Test in all cases: Assay B: in vitro antibacterial activity, broth microdilution MIC (NCCLS)
# Assay type in all cases: cell-based
# [1] = tested on: Staphylococcus aureus ATCC 6538P; settings: Table 2, Assay B, cation-adjusted Mueller Hinton broth, 35° C., 16 to 20 hr; code A = Staphylococcus aureus ATCC 6538P; unit assumed
# Outline: (§1)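 NCCLS broth microdilution with two-fold dilutions in cation-adjusted Mueller Hinton broth, inoculum about 5×10^5 CFU/mL, 35 °C in ambient air for 16-20 h; MIC read visually as lowest concentration completely inhibiting growth. S. pneumoniae: 3% lysed horse blood, 20-24 h; H. influenzae: 5 g/L yeast extract, 0.3 mmol/L hematin, 15 mg/L NAD, 20-24 h.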
# [2] = tested on: Enterococcus faecalis PIU 1967; settings: Table 2, Assay B, cation-adjusted Mueller Hinton broth, 35° C., 16 to 20 hr; code B = Enterococcus faecalis PIU 1967; unit assumed
# Outline: as §1
# Escherichia coli JUHL = settings: Table 2, Assay B, cation-adjusted Mueller Hinton broth, 35° C., 16 to 20 hr; code D = Escherichia coli JUHL; unit assumed
# Outline: as §1
# [3] = tested on: Haemophilus influenzae DILL AMP R; settings: Table 2, Assay B, Mueller Hinton broth with yeast extract, hematin and NAD, 20 to 24 hr; code E = Haemophilus influenzae DILL AMP R; unit assumed
# Outline: as §1
# [4] = tested on: Streptococcus pneumoniae ATCC 6303; settings: Table 2, Assay B, Mueller Hinton broth with 3% lysed horse blood, 20 to 24 hr; code F = Streptococcus pneumoniae ATCC 6303; unit assumed
# Outline: as §1
"Antibacterial Activity (MIC's), A [1]","Antibacterial Activity (MIC's), B [2]","Antibacterial Activity (MIC's), D (Escherichia coli JUHL)","Antibacterial Activity (MIC's), E [3]","Antibacterial Activity (MIC's), F [4]",SMILES
0.015 mg/L,0.25 mg/L,1 mg/L,0.25 mg/L,1 mg/L,"COc1c(-c2cc3c(s2)C(O)C(C)(C)CC3)ccc2c(=O)c(C(=O)O)cn(C3CC3)c12 (stereo not shown) [Example 241, 1-cyclopropyl-7-(7-hydroxy-6,6-dimethyl-4,5,6,7-tetrahydro-1-benzothien-2-yl)-8-methoxy-4-oxo-1,4-dihydro-3-quinolinecarboxylic acid]"
0.015 mg/L,0.25 mg/L,1 mg/L,0.25 mg/L,1 mg/L,"COc1c(-c2cc3c(s2)CCCC3)ccc2c(=O)c(C(=O)O)cn(C3CC3)c12 [Example 243, 1-cyclopropyl-8-methoxy-4-oxo-7-(4,5,6,7-tetrahydro-1-benzothien-2-yl)-1,4-dihydro-3-quinolinecarboxylic acid]"
≤ 0.004 mg/L,0.125 mg/L,1 mg/L,0.06 mg/L,1 mg/L,"COc1c(-c2cc3c(s2)C(N)C(F)(F)CC3)ccc2c(=O)c(C(=O)O)cn(C3CC3)c12.Cl (stereo not shown) [Example 244, 7-(7-amino-6,6-difluoro-4,5,6,7-tetrahydro-1-benzothien-2-yl)-1-cyclopropyl-8-methoxy-4-oxo-1,4-dihydro-3-quinolinecarboxylic acid hydrochloride]"
0.004 mg/L,0.25 mg/L,0.25 mg/L,0.06 mg/L,0.125 mg/L,"COc1c(-c2cc3c(s2)C(N)C(C)(C)CC3)ccc2c(=O)c(C(=O)O)cn(C3CC3)c12.Cl (stereo not shown) [Example 245, 7-(7-amino-6,6-dimethyl-4,5,6,7-tetrahydro-1-benzothien-2-yl)-1-cyclopropyl-8-methoxy-4-oxo-1,4-dihydro-3-quinolinecarboxylic acid hydrochloride]"
0.004 mg/L,0.25 mg/L,0.25 mg/L,0.03 mg/L,0.06 mg/L,"CNC1CCCc2cc(-c3c(F)cc4c(=O)c(C(=O)O)cn(C5CC5)c4c3OC)sc21.Cl (stereo not shown) [Example 246, 1-cyclopropyl-6-fluoro-8-methoxy-7-(7-(methylamino)-4,5,6,7-tetrhydro-1-benzothien-2-yl)-4-oxo-1,4-dihydro-3-quinolinecarboxiylic acid hydrochloride]"
0.125 mg/L,2 mg/L,4 mg/L,0.25 mg/L,0.25 mg/L,"COc1c(-c2cc3c(s2)CC(=O)C3)ccc2c(=O)c(C(=O)O)cn(C3CC3)c12 [Example 247, 1-cyclopropyl-8-methoxy-4-oxo-7-(5-oxo-5,6-dihydro-4H-cyclopenta[b]thien-2-yl)-1,4-dihydro-3-quinolinecarboxylic acid]"
0.03 mg/L,0.25 mg/L,2 mg/L,0.5 mg/L,0.5 mg/L,"CON=C1Cc2cc(-c3ccc4c(=O)c(C(=O)O)cn(C5CC5)c4c3OC)sc2C1 [Example 248, 1-cyclopropyl-8-methoxy-7-((5E/Z)-5-(methoxyimino)-5,6-dihydro-4H-cyclopenta[b]thien-2-yl)-4-oxo-1,4-dihydro-3-quinolinecarboxylic acid]"
0.03 mg/L,0.125 mg/L,0.06 mg/L,0.015 mg/L,0.5 mg/L,"COc1c(-c2cc3c(s2)CC(N)C3)ccc2c(=O)c(C(=O)O)cn(C3CC3)c12.Cl (stereo not shown) [Example 249, 7-(5-amino-5,6-dihydro-4H-cyclopenta[b]thien-2-yl)-1-cyclopropyl-8-methoxy-4-oxo-1,4-dihydro-3-quinolinecarboxylic acid hydrochloride]"
